Reference: PubChem BioAssay AID1247 (Sanford-Burnham Center for Chemical Genomics, 2008)
Active and inactive are the calls of the source.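 How the source made its calls: active means EC50 below a set limit, with activity reproduced on retest from dry powder; inactive means the rest.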

System: CSM 14.1 cells, thapsigargin ER-stress death rescue, ATPlite 24 h
Test: thapsigargin death rescue by analogs – CSM14.1 cells, ATP luminescence, benzodiazepine series, SAR follow-up (AID 1247)

Point of comparison: CCN(CC)c1ccc(C2Nc3ccccc3NC3=C2C(=O)CC(c2ccccc2)C3)cc1 (configuration not stated), EC50 7.15 µM. Against it:
- COc1ccc(C2CC(=O)C3=C(C2)Nc2ccccc2NC3c2ccccc2OC(C)C)cc1 (configuration not stated) — 2.5-fold higher, 17.7 µM
- O=C1CC(c2ccccc2)CC2=C1C(c1cccc3ccccc13)Nc1ccccc1N2 (configuration not stated) — 2.2-fold higher, 16 µM
- COc1ccc(C2Nc3ccccc3NC3=C2C(=O)CC(c2ccc(Cl)cc2)C3)cc1 (configuration not stated) — 1.6-fold higher, 11.1 µM
- COc1ccc(C2CC(=O)C3=C(C2)Nc2ccccc2NC3c2ccccc2[N+](=O)[O-])cc1OC (configuration not stated) — 5.1-fold higher, 36.8 µM
- COc1ccc(C2CC(=O)C3=C(C2)Nc2ccccc2NC3c2ccccc2C(F)(F)F)cc1OC (configuration not stated) — 2.4-fold higher, 17.4 µM
- COc1ccc(C2CC(=O)C3=C(C2)Nc2ccccc2NC3c2cccc(C(F)(F)F)c2)cc1OC (configuration not stated) — 2.3-fold higher, 16.6 µM
- COc1ccc(C2CC(=O)C3=C(C2)Nc2ccccc2NC3c2c(F)cccc2Cl)cc1 (configuration not stated) — 1.9-fold higher, 13.5 µM
- Cc1ccc(C2Nc3ccccc3NC3=C2C(=O)CC(c2ccccc2)C3)cc1 (configuration not stated) — 2.7-fold higher, 19.2 µM
- COc1ccc(C2CC(=O)C3=C(C2)Nc2ccccc2NC3c2c(Cl)cccc2Cl)cc1 (configuration not stated) — 3.4-fold higher, 24.4 µM
- CCCOc1ccc(C2Nc3ccccc3NC3=C2C(=O)CC(c2ccc(OC)c(OC)c2)C3)cc1 (configuration not stated) — 2.3-fold higher, 16.2 µM
- COc1ccc(C2CC(=O)C3=C(C2)Nc2ccccc2NC3c2cccc(Oc3ccccc3)c2)cc1OC (configuration not stated) — within 1.5-fold, 8.07 µM
- O=C1CC(c2ccccc2)CC2=C1C(c1c(F)cccc1Cl)Nc1ccccc1N2 (configuration not stated) — 2.5-fold higher, 18.1 µM
- COc1ccc(C2CC(=O)C3=C(C2)Nc2ccccc2NC3c2ccc(-c3ccccc3)cc2)cc1OC (configuration not stated) — 2.1-fold higher, 14.7 µM
- COc1ccc(C2CC(=O)C3=C(C2)Nc2ccccc2NC3c2ccccc2C)cc1OC (configuration not stated) — 5-fold higher, 35.8 µM
- CCOc1cccc(C2Nc3ccccc3NC3=C2C(=O)CC(c2ccc(OC)cc2)C3)c1 (configuration not stated) — 2.9-fold higher, 20.4 µM
- CSc1ccc(C2Nc3ccccc3NC3=C2C(=O)CC(c2ccccc2)C3)cc1 (configuration not stated) — 1.9-fold higher, 13.9 µM
- CCOc1cc(C2Nc3ccccc3NC3=C2C(=O)CC(c2ccc(OC)cc2)C3)cc(Cl)c1O (configuration not stated) — 3.3-fold higher, 23.5 µM
- COc1ccc(C2CC(=O)C3=C(C2)Nc2ccccc2NC3c2ccc(F)c(F)c2)cc1 (configuration not stated) — 2.9-fold higher, 20.9 µM
- COc1ccc(C2CC(=O)C3=C(C2)Nc2ccccc2NC3c2ccc(C(C)C)cc2)cc1 (configuration not stated) — within 1.5-fold, 8.22 µM
- Cc1ccc(C2Nc3ccccc3NC3=C2C(=O)CC(c2ccc(Cl)cc2)C3)cc1 (configuration not stated) — within 1.5-fold, 9.76 µM
- CCCCOc1ccccc1C1Nc2ccccc2NC2=C1C(=O)CC(c1ccccc1)C2 (configuration not stated) — 1.8-fold higher, 13.2 µM
- COc1ccc(C2CC(=O)C3=C(C2)Nc2ccccc2NC3c2c(F)cccc2F)cc1 (configuration not stated) — 4.6-fold higher, 33 µM
- CC(C)Oc1ccccc1C1Nc2ccccc2NC2=C1C(=O)CC(c1ccc(Cl)cc1)C2 (configuration not stated) — within 1.5-fold, 6.03 µM
- COc1ccc(C2CC(=O)C3=C(C2)Nc2ccccc2NC3c2ccc(C)cc2)cc1OC (configuration not stated) — 3.9-fold higher, 28.1 µM
- CCOc1cc(C2Nc3ccccc3NC3=C2C(=O)CC(c2ccc(OC)cc2)C3)cc(Br)c1O (configuration not stated) — 2.5-fold higher, 18 µM
- COc1ccc(C2CC(=O)C3=C(C2)Nc2ccccc2NC3c2ccccc2Cl)cc1OC (configuration not stated) — 5.6-fold higher, 40.3 µM
- CCN(CC)c1ccc(C2Nc3ccccc3NC3=C2C(=O)CC(c2ccc(OC)cc2)C3)cc1 (configuration not stated) — within 1.5-fold, 8.53 µM
- COc1ccc(C2CC(=O)C3=C(C2)Nc2ccccc2NC3c2cc(C)ccc2C)cc1 (configuration not stated) — 2.4-fold higher, 17.2 µM
- COc1ccc(C2CC(=O)C3=C(C2)Nc2ccccc2NC3c2cccc(Cl)c2)cc1 (configuration not stated) — 2.9-fold higher, 20.7 µM
- COc1ccc(C2CC(=O)C3=C(C2)Nc2ccccc2NC3c2ccc3ccccc3c2)cc1 (configuration not stated) — 1.6-fold higher, 11.5 µM
- COc1ccc(C2CC(=O)C3=C(C2)Nc2ccccc2NC3c2cccc(Br)c2)cc1OC (configuration not stated) — 2.4-fold higher, 16.9 µM

COc1ccc(C2CC(=O)C3=C(C2)Nc2ccccc2NC3c2cccc(O)c2)cc1 (configuration not stated) was tested, and the EC50 was > 100 µM (inactive).
For COc1ccc(C2CC(=O)C3=C(C2)Nc2ccccc2NC3c2ccc(NC(C)=O)cc2)cc1 (configuration not stated), the EC50 was > 100 µM (inactive).
With O=C1CC(c2ccccc2)CC2=C1C(c1ccc(Cl)cc1Cl)Nc1ccccc1N2 (configuration not stated) the EC50 was > 100 µM (inactive).
For COc1ccc(C2CC(=O)C3=C(C2)Nc2ccccc2NC3c2ccncc2)cc1OC (configuration not stated), the EC50 was > 100 µM (inactive).
In the case of COc1ccc(C2CC(=O)C3=C(C2)Nc2ccccc2NC3c2ccc(O)cc2)cc1 (configuration not stated), the EC50 is reported as > 100 µM (inactive).
